Test results reported in US11331299B2, “Medicinal use of serrulatane diterpenes” (The University of Sydney, priority 2016, dated 2022).
Read-outs that look alike come from different tables or passages of the source.

Tested on: 280 human cancer cell lines
Test: OncoPanel cell proliferation assay (10-day)
Assay type: cell-based
Conditions: Homo sapiens; for EC50: read-out: Cell Count EC50; for GI50: read-out: Cell Count GI50; for IC50: read-out: Cell Count IC50
[1] = Caov-3, CaOV3, Female GU - Ovary
[2] = ChaGo-K-1, ChaGoK1, Lung - NSCLC
[3] = D341 Med, CNS - Medulloblastoma
[4] = Detroit 562, Detroit 562, Head and Neck
[5] = DoTc2-4510, DoTc2 4510, Lymphoma
[6] = G292, G-292, clone A141B1, Soft Tissue - Osteosarcoma
[7] = HEL 92.1.7, HEL-92-1-7, Leukemia
[8] = HOS, Soft Tissue - Osteosarcoma

For `CC(C)=CCC[C@H](C)[C@@H]1CC[C@@H](C)c2c1cc(C)c(O)c2O` [Compound 4, 7,8-dihydroxyserrulat-14-ene], the EC50 [1] was 10.2 µM, the GI50 [1] was 10.2 µM and the IC50 [1] was 10.3 µM. For the same molecule, the EC50 (Capan-2, Capan-2, Pancreas) was 24.8 µM, the GI50 (Capan-2, Capan-2, Pancreas) was 24.7 µM and the IC50 (Capan-2, Capan-2, Pancreas) was 24.8 µM. It also gave an EC50 [2] of 8.92 µM, a GI50 [2] of 8.82 µM and an IC50 [2] of 8.92 µM. For the same molecule, the EC50 [3] was 8.57 µM, the GI50 [3] was 8.4 µM and the IC50 [3] was 8.57 µM. It also gave an EC50 (DB, Lymphoma) of 3.85 µM, a GI50 (DB, Lymphoma) of 3.84 µM and an IC50 (DB, Lymphoma) of 3.85 µM. It also gave an EC50 (DBTRG-05MG, CNS - Glioma) of 17.6 µM, a GI50 (DBTRG-05MG, CNS - Glioma) of 17.4 µM and an IC50 (DBTRG-05MG, CNS - Glioma) of 17.6 µM. For the same molecule, the EC50 (DK-MG, CNS - Glioma) was 17.2 µM, the GI50 (DK-MG, CNS - Glioma) was 16.4 µM and the IC50 (DK-MG, CNS - Glioma) was 17.2 µM. For the same molecule, the EC50 (DLD-1, DLD-1, Colon) was 15.7 µM, the GI50 (DLD-1, DLD-1, Colon) was 15.7 µM and the IC50 (DLD-1, DLD-1, Colon) was 15.7 µM. It also gave an EC50 (DMS-53, DMS53, Lung - SCLC) of 8.95 µM, a GI50 (DMS-53, DMS53, Lung - SCLC) of 8.6 µM and an IC50 (DMS-53, DMS53, Lung - SCLC) of 8.95 µM. The EC50 (DMS-114, DMS114, Lung - SCLC) was 11.5 µM, the GI50 (DMS-114, DMS114, Lung - SCLC) was 11.4 µM and the IC50 (DMS-114, DMS114, Lung - SCLC) was 11.6 µM. It also gave an EC50 (DOHH-2, DOHH-2, Lymphoma) of 2.24 µM, a GI50 (DOHH-2, DOHH-2, Lymphoma) of 2.24 µM and an IC50 (DOHH-2, DOHH-2, Lymphoma) of 2.24 µM. For the same molecule, the EC50 (DU-145, DU145, Prostate) was 18.1 µM, the GI50 (DU-145, DU145, Prostate) was 18.1 µM and the IC50 (DU-145, DU145, Prostate) was 18.1 µM. It also gave an EC50 (Daoy, CNS - Medulloblastoma) of 3.19 µM, a GI50 (Daoy, CNS - Medulloblastoma) of 3.19 µM and an IC50 (Daoy, CNS - Medulloblastoma) of 3.19 µM. It also gave an EC50 (Daudi, Lymphoma) of 2.28 µM, a GI50 (Daudi, Lymphoma) of 2.28 µM and an IC50 (Daudi, Lymphoma) of 2.28 µM. It also gave an EC50 [4] of 25 µM, a GI50 [4] of 25 µM and an IC50 [4] of 25 µM. The EC50 [5] was 9.23 µM, the GI50 [5] was 9.09 µM and the IC50 [5] was 9.23 µM. The EC50 (EB2, Lymphoma) was 8.35 µM, the GI50 (EB2, Lymphoma) was 8.32 µM and the IC50 (EB2, Lymphoma) was 8.38 µM. It also gave an EC50 (EB-3, Lymphoma) of 3.93 µM, a GI50 (EB-3, Lymphoma) of 3.93 µM and an IC50 (EB-3, Lymphoma) of 3.93 µM. It also gave an EC50 (EFM-19, EFM-19, Breast) of 11.9 µM, a GI50 (EFM-19, EFM-19, Breast) of 11.3 µM and an IC50 (EFM-19, EFM-19, Breast) of 11.9 µM. It also gave an EC50 (EM-2, Leukemia) of 3.99 µM, a GI50 (EM-2, Leukemia) of 4 µM and an IC50 (EM-2, Leukemia) of 4 µM. For the same molecule, the EC50 (FaDu, Head and Neck) was 8.28 µM, the GI50 (FaDu, Head and Neck) was 8.28 µM and the IC50 (FaDu, Head and Neck) was 8.28 µM. It also gave an EC50 [6] of 6.23 µM, a GI50 [6] of 6.07 µM and an IC50 [6] of 6.25 µM. The EC50 (G-361, G-361, Skin (Melanoma)) was 13.8 µM, the GI50 (G-361, G-361, Skin (Melanoma)) was 13.8 µM and the IC50 (G-361, G-361, Skin (Melanoma)) was 13.9 µM. It also gave an EC50 (G-401, G-401, Kidney) of 8.08 µM, a GI50 (G-401, G-401, Kidney) of 8.05 µM and an IC50 (G-401, G-401, Kidney) of 8.08 µM. The EC50 (GA-10, GA-10, Lymphoma) was 1.23 µM, the GI50 (GA-10, GA-10, Lymphoma) was 1.23 µM and the IC50 (GA-10, GA-10, Lymphoma) was 1.23 µM. The EC50 (H4, CNS - Glioma) was 13 µM, the GI50 (H4, CNS - Glioma) was 13 µM and the IC50 (H4, CNS - Glioma) was 13 µM. The EC50 (HCT-15, HCT-15, Colon) was 13.4 µM, the GI50 (HCT-15, HCT-15, Colon) was 13.4 µM and the IC50 (HCT-15, HCT-15, Colon) was 13.4 µM. The EC50 (HCT-116, HCT-116, Colon) was 10.3 µM, the GI50 (HCT-116, HCT-116, Colon) was 10.3 µM and the IC50 (HCT-116, HCT-116, Colon) was 10.3 µM. For the same molecule, the EC50 (HEC-1-A, Female GU - Uterus) was 12.3 µM, the GI50 (HEC-1-A, Female GU - Uterus) was 12.2 µM and the IC50 (HEC-1-A, Female GU - Uterus) was 12.3 µM. For the same molecule, the EC50 [7] was 4.05 µM, the GI50 [7] was 4.05 µM and the IC50 [7] was 4.05 µM. It also gave an EC50 (HLE, Liver) of 7.24 µM, a GI50 (HLE, Liver) of 7.15 µM and an IC50 (HLE, Liver) of 7.24 µM. For the same molecule, the EC50 (HLF, Liver) was 8.72 µM, the GI50 (HLF, Liver) was 8.7 µM and the IC50 (HLF, Liver) was 8.74 µM. It also gave an EC50 (HMCB, Skin (Melanoma)) of 9.49 µM, a GI50 (HMCB, Skin (Melanoma)) of 9.38 µM and an IC50 (HMCB, Skin (Melanoma)) of 9.49 µM. It also gave an EC50 [8] of 3.08 µM and a GI50 [8] of 3.08 µM.
